Data taken from US20060013880A1, “Formulation stabilizer for proton pump inhibitors” (priority 2004, published 2006).

Procedure: This standardized stress study simulates degradation during long-term storage under high, but naturally occurring humidity levels. • 1) Dry binary mixture was prepared by accurately weighing 30 mg of lansoprazole ( Lot # A10344, purchased from ITF Chemical, LTDA, of Polo Petrochimico, Brazil) into a 20 ml head space-gas chromatography vial. A stabilizer was also weighed and added into the vial. The stabilizer tested in the experiments included the polymeric bases: cholestyramine chloride ( Lot# 038167, Dow Chemical), cholestyramine resin in hydroxide form (prepared from cholestyramine chloride as described in Example 1), Eudragit E-PO powder (lot# G030131033, Rohm Gmbh, Germany), and chitosan powder (Mutchler inc., Harrington, N.J.). […] The lansoprazole and stabilizer were mixed by vortexing for 30 seconds. • 2) A second set of dry binary mixtures were prepared in a head space-gas chromatography vial with a glass insert. […] Ten microliters of the diluted samples were analyzed by HPLC to quantitate the remaining lansoprazole using freshly prepared external lansoprazole standard solution. […]

cholestyramine hydroxide
Stabilization effect for lansoprazole (in words): significant stabilization effect
